Our source for the MIC values is US20230114728A1 (Venatorx Pharmaceuticals, Inc., priority 2019, published 2023).

Values after ≈ are worked out from the molar mass of the structure shown.

Common to all, as to assay: Broth microdilution MIC in CAMHB
Common to all, as to format: cell-based

The subject of test [1] is A. baumannii ATCC 19606. The note with it: Acinetobacter baumannii, ATCC19606; MHB; read-out: Minimum Inhibitory Concentration, A. baumannii ATCC 19606. As to the method:
(§1) Example III: In Vitro Antibacterial Assays
(§2) To determine the ability of test compounds to inhibit the growth of bacterial strains, classic cell based broth microdilution minimum inhibitory concentration (MIC) assays were employed. MIC assays are performed according to CLSI methods except where otherwise noted (CLSI, 2018 and CLSI, 2019). The reference type strain E. coli ATCC 25922; the wild-type parent strain E. coli AG100; the hyper-permeable E. coli 901C and E. coli D22; and the E. coli AG100A strain lacking the acrAB efflux pump encoding genes were used to determine the ability of the PBP inhibitors to penetrate the outer membrane of gram-negative bacteria and inhibit bacterial growth. […] The P. aeruginosa ATCC 27853 and A. baumannii ATCC 19606, along with the hyper-permeable P. aeruginosa ATCC 35151 and an engineered efflux pump-compromised strain of P. aeruginosa (ΔmexAB-oprM) were used to determine the ability of PBP inhibitors to penetrate the outer membrane of P. aeruginosa and A. baumannii and assess antibacterial activity against these important gram-negative organisms.
(§3) Briefly, cryo-preserved bacterial cultures of challenge strains are streaked for isolation on appropriate agar medium, in this case cation-adjusted Mueller Hinton agar. Following incubation to allow growth of the colonies, plates are sealed with parafilm and stored refrigerated for up to two weeks. For preparation of assay inoculum and to ensure low variability, at least 5 colonies are picked from the agar plates with an inoculating loop and aseptically transferred to a culture tube containing 3 mL of cation-adjusted Mueller Hinton broth (CAMHB). The broth culture is grown for 3-5 hours at 37° C. with shaking at 200 rpm. Meanwhile, 2-fold serial dilutions of test compounds are conducted in a 96-well plate with a final volume of 75 μL per well at 2-fold the final desired concentration. After the dilution plates are set up the growing cultures are then diluted in a cuvette containing CAMHB and the optical density is measured at 600 nm. The inoculum is diluted such that 75 μL of this culture in CAMHB results in a starting bacterial concentration of 2-8×10^5 CFU/mL when added to the dilution plates. The plates are incubated for 16-20 hours for Enterobacteriaceae and Pseudomonas and 20-24 hours for Acinetobacter at 37° C. The MIC values are read visually as the lowest concentration well with no bacterial growth.

For test [2], the system named is E. coli 901C. The conditions noted are these: Escherichia coli; MHB; hyper-permeable E. coli 901C; read-out: Minimum Inhibitory Concentration, E. coli 901C. As to the method: as §1, §2, §3
The test system of test [3] is E. coli AG100A. The conditions noted are these: Escherichia coli, read-out: Minimum Inhibitory Concentration, E. coli AG100A. How it is done: as §1, §2, §3
Test [4] has as its system E. coli AG100. The conditions noted are these: Escherichia coli; MHB; wild-type parent strain E. coli AG100; read-out: Minimum Inhibitory Concentration, E. coli AG100. How it is done:
as §1, §2, §3

For test [5], the system named is E. coli ATCC 25922. The conditions noted are these: Escherichia coli, ATCC25922; MHB; E. coli ATCC 25922; read-out: Minimum Inhibitory Concentration, E. coli 25922. As to the method:
as §1, §2, §3

Test [6] deals with E. coli D22. The note with it: Escherichia coli; MHB; hyper-permeable E. coli D22; read-out: Minimum Inhibitory Concentration, E. coli D22. How it is done: as §1, §2, §3
Test [7] deals with K. pneumoniae 848844 producing SHV-11 and KPC-2. The conditions noted are these: Klebsiella pneumoniae, read-out: Minimum Inhibitory Concentration, K. pneumoniae 848844. How it is done:
as §1, §2, §3

For test [8], the system named is K. pneumoniae SI-117 producing VIM-1. The conditions noted are these: Klebsiella pneumoniae, read-out: Minimum Inhibitory Concentration, K. pneumoniae SI-117. As to the method:
as §1, §2, §3

In test [9] the test system is K. pneumoniae UMM producing SHV-5 and KPC-2. The note with it: Klebsiella pneumoniae, read-out: Minimum Inhibitory Concentration, K. pneumoniae UMM. How it is done:
as §1, §2, §3

Test [10] relates to P. aeruginosa (ΔmexAB-oprM). The conditions noted are these: Pseudomonas aeruginosa, read-out: Minimum Inhibitory Concentration, P. aeruginosa ΔmexAB-OprM. As to the method: as §1, §2, §3
Test [11] concerns P. aeruginosa ATCC 27853. The note with it: Pseudomonas aeruginosa, ATCC27853; MHB; read-out: Minimum Inhibitory Concentration, P. aeruginosa ATCC 27853. How it is done: as §1, §2, §3
The test system of test [12] is P. aeruginosa ATCC 35151. The note with it: Pseudomonas aeruginosa, ATCC35151; MHB; hyper-permeable strain; read-out: Minimum Inhibitory Concentration, P. aeruginosa ATCC 35151. As to the method: as §1, §2, §3

`C[C@H]1CN(CCF)C(=O)C(=O)N1C(=O)N[C@@H](C(=O)N[C@H]1Cc2cccc(C(=O)O)c2OB1O)c1ccc(O)c(F)c1F` [Example 241, (3R)-3-(2-(2,3-difluoro-4-hydroxyphenyl)-2-((S)-4-(2-fluoroethyl)-6-methyl-2,3-dioxopiperazine-1-carboxamido)acetamido)-2-hydroxy-3,4-dihydro-2H-benzo[e][1,2]oxaborinine-8-carboxylic acid]: the MIC in [1] was above 128 µg/mL; in test [2], above 128 µg/mL; in test [3], 32 to 64 µg/mL (≈ 54 to 108 µM); in test [4] it was 32 to 64 µg/mL (≈ 54 to 108 µM); in test [5], 8 to 16 µg/mL (≈ 13.5 to 27 µM); in test [6], 32 to 64 µg/mL (≈ 54 to 108 µM). Moreover, the MIC was 32 to 64 µg/mL (≈ 54 to 108 µM) in test [7]; 2 to 4 µg/mL (≈ 3.38 to 6.75 µM) in [8]; below 0.25 µg/mL in test [9]; 2 to 4 µg/mL (≈ 3.38 to 6.75 µM) in [10]; above 128 µg/mL in test [11]; 2 to 4 µg/mL (≈ 3.38 to 6.75 µM) in test [12].

In the case of `C[C@H]1CN(CCN)C(=O)C(=O)N1C(=O)N[C@@H](C(=O)N[C@H]1Cc2cccc(C(=O)O)c2OB1O)c1ccc(O)c(F)c1F` [Example 242, (3R)-3-(2-((S)-4-(2-aminoethyl)-6-methyl-2,3-dioxopiperazine-1-carboxamido)-2-(2,3-difluoro-4-hydroxyphenyl)acetamido)-2-hydroxy-3,4-dihydro-2H-benzo[e][1,2]oxaborinine-8-carboxylic acid], the MIC in [1] is above 128 µg/mL; in [2] it was 32 to 64 µg/mL (≈ 54.3 to 109 µM); in [3], 32 to 64 µg/mL (≈ 54.3 to 109 µM); in test [4] it was 32 to 64 µg/mL (≈ 54.3 to 109 µM); in test [5] it was 8 to 16 µg/mL (≈ 13.6 to 27.2 µM); in test [6], 8 to 16 µg/mL (≈ 13.6 to 27.2 µM). Also, the MIC is 32 to 64 µg/mL (≈ 54.3 to 109 µM) in test [7]; 2 to 4 µg/mL (≈ 3.39 to 6.79 µM) in test [8]; 0.5 to 1 µg/mL (≈ 0.848 to 1.7 µM) in test [9]; 8 to 16 µg/mL (≈ 13.6 to 27.2 µM) in test [10]; above 128 µg/mL in [11]; 0.5 to 1 µg/mL (≈ 0.848 to 1.7 µM) in [12].

Take `C[C@H]1CN(CCF)C(=O)C(=O)N1C(=O)NC(C(=O)N[C@H]1Cc2cccc(C(=O)O)c2OB1O)c1cc(F)c(O)c(F)c1F` (stereo partly drawn) [Example 248]: the MIC in [1] was above 128 µg/mL; in [2] it was above 128 µg/mL; in [3], 32 to 64 µg/mL (≈ 52.4 to 105 µM); in test [4], 32 to 64 µg/mL (≈ 52.4 to 105 µM); in test [5] it was 8 to 16 µg/mL (≈ 13.1 to 26.2 µM); in test [6] it was 8 to 16 µg/mL (≈ 13.1 to 26.2 µM). The MIC is 32 to 64 µg/mL (≈ 52.4 to 105 µM) in test [7]; 0.5 to 1 µg/mL (≈ 0.819 to 1.64 µM) in test [8]; below 0.25 µg/mL in [9]; 8 to 16 µg/mL (≈ 13.1 to 26.2 µM) in test [10]; above 128 µg/mL in test [11]; 2 to 4 µg/mL (≈ 3.28 to 6.55 µM) in test [12].

In the case of `O=C(O)c1cccc2c1OB(O)[C@@H](NC(=O)C(NC(=O)N1CCN(CCBr)C(=O)C1=O)c1ccc(O)c(F)c1F)C2` (stereo partly drawn) [Example 249, (3R)-3-(2-(4-(2-bromoethyl)-2,3-dioxopiperazine-1-carboxamido)-2-(2,3-difluoro-4-hydroxyphenyl)acetamido)-2-hydroxy-3,4-dihydro-2H-benzo[e][1,2]oxaborinine-8-carboxylic acid], the MIC in test [1] is above 128 µg/mL; in [2], above 128 µg/mL; in test [3] it was 32 to 64 µg/mL (≈ 50.1 to 100 µM); in test [4], above 128 µg/mL; in test [5] it was 32 to 64 µg/mL (≈ 50.1 to 100 µM); in test [6], 32 to 64 µg/mL (≈ 50.1 to 100 µM). In addition, the MIC in test [7] was 32 to 64 µg/mL (≈ 50.1 to 100 µM); in [8], 2 to 4 µg/mL (≈ 3.13 to 6.26 µM); in [9], below 0.25 µg/mL; in test [10] it was 8 to 16 µg/mL (≈ 12.5 to 25 µM); in test [11] it was above 128 µg/mL; in test [12] it was 0.5 to 1 µg/mL (≈ 0.782 to 1.56 µM).

As to `CCN1CCN(C(=O)NC(C(=O)N[C@H]2Cc3cccc(C(=O)O)c3OB2O)c2ccc(P(=O)(O)O)cc2)C(=O)C1=O` (stereo partly drawn) [Example 250, (3R)-3-(2-(4-ethyl-2,3-dioxopiperazine-1-carboxamido)-2-(4-phosphonophenyl)acetamido)-2-hydroxy-3,4-dihydro-2H-benzo[e][1,2]oxaborinine-8-carboxylic acid], the MIC in test [1] is 32 to 64 µg/mL (≈ 54.4 to 109 µM); in test [2] it was above 128 µg/mL; in test [3], above 128 µg/mL; in test [4], above 128 µg/mL; in [5], 32 to 64 µg/mL (≈ 54.4 to 109 µM); in test [6], 32 to 64 µg/mL (≈ 54.4 to 109 µM). Moreover, the MIC was above 128 µg/mL in [7]; 2 to 4 µg/mL (≈ 3.4 to 6.8 µM) in test [8]; below 0.25 µg/mL in test [9]; 8 to 16 µg/mL (≈ 13.6 to 27.2 µM) in test [10]; above 128 µg/mL in test [11]; 2 to 4 µg/mL (≈ 3.4 to 6.8 µM) in test [12].

In the case of `Nc1nc(C(=O)NC(C(=O)N[C@H]2Cc3cccc(C(=O)O)c3OB2O)c2c(F)cc(O)cc2F)cs1` (stereo partly drawn) [Example 251, (3R)-3-(2-(2-aminothiazole-4-carboxamido)-2-(2,6-difluoro-4-hydroxyphenyl)acetamido)-2-hydroxy-3,4-dihydro-2H-benzo[e][1,2]oxaborinine-8-carboxylic acid], the MIC in test [1], in test [2], in test [3], in [4], in [5] and in [6] was above 128 µg/mL each time. Besides, the MIC in [7] is above 128 µg/mL; in test [8], 8 to 16 µg/mL (≈ 15.4 to 30.9 µM); in test [9] it was 2 to 4 µg/mL (≈ 3.86 to 7.72 µM); in test [10] it was 32 to 64 µg/mL (≈ 61.7 to 123 µM); in test [11], above 128 µg/mL; in test [12] it was 2 to 4 µg/mL (≈ 3.86 to 7.72 µM).
